Experimental data taken from paper PMC9795544, “Identifying Novel Inhibitors for Hepatic Organic Anion Transporting Polypeptides by Machine Learning-Based Virtual Screening” (Journal of Chemical Information and Modeling, 2022).
pIC50: −log10 of the molar value. Read-outs that look alike come from different tables or passages of the source.

Tests used:
Format in all cases: cell-based
OATP2B1 = biological target: T1, OATP2B1 (Homo sapiens, UniProt O94956); experiment: Pyranine transport inhibition in A431 cells overexpressing OATP2B1
T1 construct: expressed in transfected cells; host or cells: A431 cells
T1 sequence (O94956 1-709): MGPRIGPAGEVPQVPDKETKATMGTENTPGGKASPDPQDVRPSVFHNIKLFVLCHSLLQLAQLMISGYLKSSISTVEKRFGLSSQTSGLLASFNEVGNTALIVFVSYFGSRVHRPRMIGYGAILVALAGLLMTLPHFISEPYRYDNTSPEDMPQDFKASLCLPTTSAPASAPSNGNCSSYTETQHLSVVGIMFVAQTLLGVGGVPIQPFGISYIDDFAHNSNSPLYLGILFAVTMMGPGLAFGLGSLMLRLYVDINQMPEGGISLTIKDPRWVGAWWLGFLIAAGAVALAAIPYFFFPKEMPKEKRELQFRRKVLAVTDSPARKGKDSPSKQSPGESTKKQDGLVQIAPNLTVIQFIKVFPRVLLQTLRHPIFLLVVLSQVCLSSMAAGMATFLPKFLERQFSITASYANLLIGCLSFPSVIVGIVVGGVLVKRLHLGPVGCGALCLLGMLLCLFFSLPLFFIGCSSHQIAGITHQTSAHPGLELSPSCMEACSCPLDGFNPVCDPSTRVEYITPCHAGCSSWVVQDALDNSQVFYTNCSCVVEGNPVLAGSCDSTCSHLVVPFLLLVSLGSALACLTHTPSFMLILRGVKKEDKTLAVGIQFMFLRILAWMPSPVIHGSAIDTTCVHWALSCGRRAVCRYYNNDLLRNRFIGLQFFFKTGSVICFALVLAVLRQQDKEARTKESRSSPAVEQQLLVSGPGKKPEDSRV
Experimental: (§1) A431 cells overexpressing OATP1B1, OATP1B3, or OATP2B1 or their mock transfected controls were generated previously[30] and maintained in Dulbecco’s modified Eagle medium (DMEM, Gibco, Thermofisher Scientific, Waltham, MA, US) supplemented with 10% fetal bovine serum, 2 mM L-glutamine, 100 units/mL penicillin, and 100 μg/mL streptomycin. Expression and function of OATPs in the cell lines were checked regularly.
(§2) Interaction with OATP1B1, OATP1B3, or OATP2B1 was tested in an indirect transport assay using pyranine (8-hydroxypyrene-1,3,6-trisulfonic acid trisodium salt, H1529, Sigma, Merck, Budapest, Hungary) as the test substrate[31],[32] A431 cells overexpressing OATP1B1, OATP1B3, or OATP2B1 or their mock transfected controls were seeded on 96-well plates in a density of 8 × 10^4 cells per well in 200 μL of cell culture medium 1 day prior to the transport measurements. […] The transport reaction was started by the addition of 50 μL of uptake buffer containing pyranine in a final concentration of 10 μM (OATP1B1) or 20 μM (OATP1B3 and OATP2B1), and the cells were further incubated at 37 °C for 15 min (OATP1B1 and OATP2B1) or 30 min (OATP1B3). The reaction was stopped by removing the supernatant. After repeated washing with ice-cold PBS, fluorescence was determined in an Enspire plate reader (PerkinElmer, Waltham, MA) with excitation/emission wavelengths of 460/510 nm. OATP-dependent transport was calculated by extracting fluorescence measured in mock transfected cells and normalized to the fluorescence signal obtained in the absence of the tested compounds (100%). Experiments were repeated in at least three biological replicates.

OATP1B1 = biological target: T2, OATP1B1 (Homo sapiens, UniProt Q9Y6L6); experiment: Pyranine transport inhibition in A431 cells overexpressing OATP1B1; conditions: for IC50: read-out: IC50 (μM) OATP1B1
T2 construct: expressed in transfected cells; host or cells: A431 cells
T2 sequence (Q9Y6L6 1-691): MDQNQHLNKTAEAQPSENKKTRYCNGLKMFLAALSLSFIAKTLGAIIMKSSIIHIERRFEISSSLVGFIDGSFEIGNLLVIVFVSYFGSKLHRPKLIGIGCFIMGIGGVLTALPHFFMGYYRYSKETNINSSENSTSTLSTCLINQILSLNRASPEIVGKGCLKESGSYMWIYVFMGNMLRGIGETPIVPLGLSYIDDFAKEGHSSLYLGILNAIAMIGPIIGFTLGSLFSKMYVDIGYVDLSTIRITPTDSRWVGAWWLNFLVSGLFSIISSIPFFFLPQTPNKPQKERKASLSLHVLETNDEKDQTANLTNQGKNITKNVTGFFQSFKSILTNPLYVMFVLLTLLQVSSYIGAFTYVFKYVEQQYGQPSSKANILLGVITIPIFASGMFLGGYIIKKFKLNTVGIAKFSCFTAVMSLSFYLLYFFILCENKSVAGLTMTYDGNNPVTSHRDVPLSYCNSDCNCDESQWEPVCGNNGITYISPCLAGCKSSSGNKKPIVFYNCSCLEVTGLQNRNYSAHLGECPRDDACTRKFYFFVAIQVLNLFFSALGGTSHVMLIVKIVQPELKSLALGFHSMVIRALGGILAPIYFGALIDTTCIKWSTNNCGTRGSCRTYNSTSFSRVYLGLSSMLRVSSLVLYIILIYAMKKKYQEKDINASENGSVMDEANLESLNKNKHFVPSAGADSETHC
Experimental: as §1, §2

OATP1B3 = biological target: T3, OATP1B3 (Homo sapiens, UniProt Q9NPD5); experiment: Pyranine transport inhibition in A431 cells overexpressing OATP1B3; conditions: for IC50: read-out: IC50 (μM) OATP1B3
T3 construct: expressed in transfected cells; host or cells: A431 cells
T3 sequence (Q9NPD5 1-702): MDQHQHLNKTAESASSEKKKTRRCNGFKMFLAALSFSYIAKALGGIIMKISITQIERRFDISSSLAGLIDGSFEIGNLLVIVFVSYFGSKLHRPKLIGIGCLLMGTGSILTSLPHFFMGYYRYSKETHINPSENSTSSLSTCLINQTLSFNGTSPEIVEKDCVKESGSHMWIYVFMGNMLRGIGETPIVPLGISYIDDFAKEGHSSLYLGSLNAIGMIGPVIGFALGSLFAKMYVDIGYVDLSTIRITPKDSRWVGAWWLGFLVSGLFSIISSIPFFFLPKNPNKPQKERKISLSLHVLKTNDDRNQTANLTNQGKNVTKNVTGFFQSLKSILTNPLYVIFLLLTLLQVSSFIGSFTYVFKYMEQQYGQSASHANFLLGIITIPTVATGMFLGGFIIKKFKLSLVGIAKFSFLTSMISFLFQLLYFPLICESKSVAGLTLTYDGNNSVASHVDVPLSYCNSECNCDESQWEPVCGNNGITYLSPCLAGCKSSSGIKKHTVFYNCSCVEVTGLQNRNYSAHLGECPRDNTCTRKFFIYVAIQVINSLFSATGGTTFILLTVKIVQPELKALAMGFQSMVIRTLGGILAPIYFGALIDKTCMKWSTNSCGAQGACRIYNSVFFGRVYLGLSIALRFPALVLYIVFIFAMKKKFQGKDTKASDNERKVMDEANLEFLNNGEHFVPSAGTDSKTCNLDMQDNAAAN
Experimental: as §1, §2

[1] = initial three-point screen (1, 10, 100 μM), category by concentration needed for 50% inhibition, pyranine 20 μM, 15 min, pH 5.5, read-out: IC50 (μM) OATP2B1
[2] = initial three-point screen (1, 10, 100 μM), category by concentration needed for 50% inhibition, pyranine 10 μM, 15 min, pH 5.5
[3] = initial three-point screen (1, 10, 100 μM), category by concentration needed for 50% inhibition, pyranine 20 μM, 30 min, pH 5.5
[4] = IC50 (μM) OATP2B1, initial three-point screen (1, 10, 100 μM), category by concentration needed for 50% inhibition, pyranine 20 μM, 15 min, pH 5.5
[5] = full dose-response curve, eight concentrations, Hill1 fit, read-out: IC50 (μM) OATP2B1
[6] = full dose-response curve, eight concentrations, Hill1 fit

| SMILES | IC50 (OATP2B1; [1]) | IC50 (OATP1B1; [2]) | IC50 (OATP1B3; [3]) | further results |
| --- | --- | --- | --- | --- |
| CSCCC(NC(=O)c1ccco1)C(=O)OCc1cc(=O)oc2cc(O)ccc12 (stereo not drawn) [B7, CSCCC(NC(=O)c1occc1)C(=O)OCC2=CC(=O)Oc3cc(O)ccc23] | 1 to 10 µM | 1 to 10 µM | > 10 µM |  |
| CCc1ccccc1NC(=O)CN1CCN(C(=O)c2cc(-c3ccncc3)nc3ccccc23)CC1 [C3, CCc1ccccc1NC(=O)CN2CCN(CC2)C(=O)c3cc(nc4ccccc34)c5ccncc5] | 1 to 10 µM | 1 to 10 µM | > 10 µM |  |
| Cc1cccn2cc(COC(=O)c3ccc4c(c3)C(=O)N(Cc3ccco3)C4=O)nc12 [C4, Cc1cccn2cc(COC(=O)c3ccc4C(=O)N(Cc5occc5)C(=O)c4c3)nc12] |  |  |  | IC50 (OATP2B1; [4]): > 10 µM; pIC50 (OATP1B1): < 5.00; IC50 (μM) OATP1B3 (OATP1B3; [3]): no effect |
| Cc1cccc2nc(CSc3nc4sc5c(c4c(=O)n3Cc3ccccc3)CCCC5)cn12 [C5, Cc1cccc2nc(CSC3=Nc4sc5CCCCc5c4C(=O)N3Cc6ccccc6)cn12] | > 10 µM | > 10 µM |  | IC50 (μM) OATP1B3 (OATP1B3; [3]): no effect |
| CC(C)c1cc(C(=O)N2CCC(n3c(=O)[nH]c4ccccc43)CC2)c2cnn(C(C)C)c2n1 [C6, CC(C)c1cc(C(=O)N2CCC(CC2)N3C(=O)Nc4ccccc34)c5cnn(C(C)C)c5n1] | 1 to 10 µM | 1 to 10 µM | 1 to 10 µM |  |
| O=C(O)c1cc(/C=C/c2c(-c3ccccc3)nc3ccccn23)nc2ccccc12 [C7, OC(=O)c1cc(\C=C\c2c(nc3ccccn23)c4ccccc4)nc5ccccc15] | < 1 µM |  | 1 to 10 µM | IC50 (OATP2B1; [5]): 0.04 µM; pIC50 (OATP1B1): < 5.00; IC50 (OATP1B3; [6]): 5.4 µM; fold lower affinity on OATP1B3 than on OATP2B1 (OATP1B3; ratio of IC50 OATP1B3 / OATP2B1): 135 fold |
| O=C(COc1ccc([N+](=O)[O-])cc1)Nc1c(C(=O)N2CCOCC2)oc2ccccc12 [D7, [O-][N+](=O)c1ccc(OCC(=O)Nc2c(oc3ccccc23)C(=O)N4CCOCC4)cc1] |  |  |  | IC50 (OATP2B1; [4]): > 10 µM; pIC50 (OATP1B1): < 5.00; IC50 (μM) OATP1B3 (OATP1B3; [3]): no effect |
| COc1ccc(C2(c3ccc(OC)cc3)NC(=O)N(CC(=O)c3ccc4c(c3)OCO4)C2=O)cc1 [E2, COc1ccc(cc1)C2(NC(=O)N(CC(=O)c3ccc4OCOc4c3)C2=O)c5ccc(OC)cc5] | 1 to 10 µM | > 10 µM | 1 to 10 µM |  |
| Cc1ccc(OCc2nnc(SCC(=O)N3CCN(C(=O)Nc4ccccc4)CC3)o2)cc1 [F4, Cc1ccc(OCc2oc(SCC(=O)N3CCN(CC3)C(=O)Nc4ccccc4)nn2)cc1] |  |  |  | IC50 (OATP2B1; [4]): > 10 µM; pIC50 (OATP1B1): < 5.00; IC50 (μM) OATP1B3 (OATP1B3; [3]): Activated |

Now from value to molecule, other results behind:

| IC50 (OATP2B1; [1]) | IC50 (OATP1B1; [2]) | IC50 (OATP1B3; [3]) | SMILES | further results |
| --- | --- | --- | --- | --- |
| > 10 µM | > 10 µM | > 10 µM | O=C1NC2(CCCc3sccc32)C(=O)N1CC(=O)N1c2ccccc2OCC1c1ccccc1 (stereo not drawn) [D2, O=C(CN1C(=O)NC2(CCCc3sccc23)C1=O)N4C(COc5ccccc45)c6ccccc6] |  |
| > 10 µM |  |  | O=C(CCN1C(=O)NC2(CCCC2)C1=O)Nc1nc(-c2ccc3c(c2)CCC3)cs1 [D3, O=C(CCN1C(=O)NC2(CCCC2)C1=O)Nc3nc(cs3)c4ccc5CCCc5c4] | IC50 (μM) OATP1B1 (OATP1B1; [2]): no effect; IC50 (μM) OATP1B3 (OATP1B3; [3]): no effect |
|  | 1 to 10 µM | 1 to 10 µM | Cn1c(=O)[nH]c(=O)c2c1nc(N/N=C1/C(=O)Nc3ccccc31)n2CCCc1ccccc1 [E3, CN1C(=O)NC(=O)c2c1nc(N\N=C/3\C(=O)Nc4ccccc34)n2CCCc5ccccc5] | IC50 (OATP2B1; [5]): 1.32 µM; IC50 (OATP1B1; [6]): 2.69 µM; IC50 (OATP1B3; [6]): 1.53 µM |
|  | 1 to 10 µM |  | O=C(NCc1cn(Cc2ccccc2)nc1-c1ccccc1)c1cc(F)cc(F)c1 [E5, Fc1cc(F)cc(c1)C(=O)NCc2cn(Cc3ccccc3)nc2c4ccccc4] | IC50 (OATP2B1; [5]): 1.48 µM; IC50 (OATP1B1; [6]): 7.61 µM; IC50 (OATP1B3; [6]): 7.5 µM |
| 1 to 10 µM | > 10 µM | > 10 µM | CCn1cnc2c1c(=O)n(CC(=O)NC1CCCC(C)C1C)c(=O)n2Cc1ccccc1 (stereo not drawn) [E6, CCn1cnc2N(Cc3ccccc3)C(=O)N(CC(=O)NC4CCCC(C)C4C)C(=O)c12] |  |
| > 10 µM | > 10 µM | > 10 µM | O=C(Nc1ccccc1)N1CCCC(C(=O)N2CCN(Cc3nc4ccccc4s3)CC2)C1 (stereo not drawn) [F3, O=C(Nc1ccccc1)N2CCCC(C2)C(=O)N3CCN(Cc4nc5ccccc5s4)CC3] |  |
| 1 to 10 µM | 1 to 10 µM | 1 to 10 µM | Cc1cc(NS(=O)(=O)c2ccc(NC(=O)Cc3coc4c(C)c(C)ccc34)cc2)nc(C)n1 [F5, Cc1cc(NS(=O)(=O)c2ccc(NC(=O)Cc3coc4c(C)c(C)ccc34)cc2)nc(C)n1] |  |
| 1 to 10 µM | > 10 µM | > 10 µM | O=C(NCc1ccc(N2CCOCC2)nc1)c1ccccc1CSc1nc2ccccc2[nH]1 [F6, O=C(NCc1ccc(nc1)N2CCOCC2)c3ccccc3CSc4nc5ccccc5[nH]4] |  |
| 1 to 10 µM | 1 to 10 µM | 1 to 10 µM | O=C(Nc1ccccc1)C1CCN(C(=O)c2cc(-c3ccccc3)nc3ccccc23)CC1 [G2, O=C(Nc1ccccc1)C2CCN(CC2)C(=O)c3cc(nc4ccccc34)c5ccccc5] |  |
